Measurements from PMC5926742 (Japanese Journal of Cancer Research : Gann, 2001).

Target: DNA polymerase β (Bos taurus, UniProt Q27958)
Test: [methyl-3H]TTP incorporation into activated DNA, DE81 paper disc
Type: biochemical

Structure (SMILES)	IC50
Nc1ccn([C@@H]2O[C@H](COP(=O)(O)OP(=O)(O)OP(=O)(O)O)[C@@H](O)C2(F)F)c(=O)n1 [dFdCTP]	450 µM
Nc1ccn([C@H]2CC[C@@H](COP(=O)(O)OP(=O)(O)OP(=O)(O)O)O2)c(=O)n1 [ddCTP]	240 µM
